Test system: Spermatozoa
Assay: Post-thaw sperm motility under phase contrast microscope (Cryopreservation Example I)
Type: cell-based, Bovine
Conditions: Hoechst 33342 added to aliquots in TCA buffer, 20 min at 35° C. or 41° C., cryopreserved, thawed 37° C. 50 seconds; analysis of variance
Procedure: Bovine semen was collected, transported, and evaluated as described above. Two test tubes containing 5 ml each of TCA buffer (pH 7.3) were placed in one of two water baths for at least five minutes. One water bath was at a temperature of 35° C. and the other water bath was at 41° C. Spermatozoa at 24° C. were added to each tube so that the final concentration in each tube was 150×10^6 sperm/ml. The two tubes were each divided into two aliquots which were kept in respective water baths. After the sperm had equilibrated with the TCA buffer for five minutes, […] was added to one of 35° C. aliquots and one of the 41° C. aliquots. After addition of the Hoechst 33342, all four aliquots were incubated for 20 minutes in their respective water bath. After incubation, the test tubes were removed from the water baths and left at room temperature (about 25° C.) for five minutes. Then the contents of each test tube were diluted with a TCA extender containing 20% egg yolk and 6% glycerol (v/v) (pH 7.0) to a final concentration of 20×10^6 sperm/ml. The contents of each test tube were then used to fill a 0.5 ml artificial insemination straw. Each of the four straws was placed in a programmable freezer (an IceCube 1810CD freezer from Minitube of America, Wis.). […]

## CCOc1ccc(-c2nc3ccc(-c4nc5ccc(N6CCN(C)CC6)cc5[nH]4)cc3[nH]2)cc1 [Hoechst 33342]
  effect on post-thaw sperm motility: no significant effect

From patent US8691584B2, “Sperm processing methods” (priority 2003, dated 2014)
